In US8278100B2, “Lasonolide compounds as reagents for inducing premature chromosome condensation and methods for treating disorders” (The United States of America, as Represented by the …, priority 2008, dated 2012):
Values joined by “and” are separate entries in the source; they are usually repeats but may differ in a detail not shown here. Equal entries are not always repeated. “Also recorded” adds a separate entry of the source.

Tests used:
[1] = test system: human lymphocytes; test: PCC induction and PI staining; assay type: cell-based; settings: 200 nM Lasonolide A, without additional reagents
[2] = test system: chromosome condensation in each phase of the cell cycle; test: Chromosome spread assay; assay type: cell-based
Method: After the induction of PCC by Lasonolide A, cells were incubated in hypotonic solution (10 mM Tris-HCl [ph 7.4], 40 mM glycerol, 20 mM NaCl, 1 mM CaCl2, 0.5 mM MgCl2) at 37° C. for 15 min. Then followed with cytospining at 1,800 rpm for 10 min and normal PI staining as above (FIG. 1E).

[3] = test system: MDA-MB-231 cells; test: Transwell migration assay; assay type: cell-based, human; settings: 6 h
Method: The effect of Lasonolide A on the migration of breast cancer MDA-MB-231 cells was determined in a transwell Boyden Chamber (Costar, Mass.) using a polycarbonate filter with a pore size of […], which was coated with 0.2% gelatin, balancing with gelatin at 37° C. for 1 h, then removal of the gelatin and covering with DMEM without serum overnight at 37° C. In the standard assay, after removing medium, 0.1 mL of cell suspension (1×10^5 cells/ml, in serum-free medium) with Lasonolide A or 0.1% DMSO (v/v) was added to the upper compartment of the chamber. The lower compartment contained 0.6 mL of DMEM medium supplemented with 20% serum. After incubation for 6 h at 37° C., the filter was removed and fixed with ethanol. Cells remaining on the upper surface of the filter (non-migrated) were scraped gently. Then, migrated cells on the lower surface of the filter were stained with 0.1% crystal violet and taken photographs under microscope (FIG. 6C).

[4] = test system: chromatin condensation; test: DNase I sensitivity assay; assay type: cell-based; settings: 1 h
Method: Cells were treated with different concentrations of Lasonolide A for 1 h and were collected with centrifuging. The centrifuged cells were washed with PBS and fixed with 1.5% PFA for 15 min on ice. After washing by PBS, fresh PBS was added (300 μL) to re-suspend the pellet, then 700 μL 70% EtOH was gently added and the mixture was maintained at −20° C. overnight. The solution was washed by PBS once, then washed by 1× DNase I reaction buffer (500 μL), then incubated in 200 μL Reaction buffer with 4 Units DNase I (2 μL), 37° C., 10 min. The solution was washed by PBS and incubated in 100 μL Polymerase reaction buffer including 16 μM dATP, 16 μM dCTP, 16 μM dGTP, 16 μM dUTP-FITC, 100 unit/mL Polymerase I, 37° C. 60 min. FL1 channel of Green fluorescence signal were measured with flow cytometer (FIG. 1C).

[5] = test system: tumor cells; test: Premature chromosome condensation (PCC) induction, cells not specified; assay type: cell-based
Method: (§1) Burkitt's Lymphoma CA46 cells (500,000) (FIG. 1B) or breast cancer MDA-MB-231 cells (500,000) (FIG. 1A) were treated by 100 nM Lasonolide A (stock solution 100 μM in DMSO) for 1 h. Lymphocytes were treated with 200 nM Lasonolide A for 1 h. Cells were harvested with centrifuging on 2,000 rpm for 5 min at 4° C. Pellets were washed once by PBS and re-suspended in 1 mL PBS. 200 μL cells mixture were added to the chamber for cytospining. Cells were cytospun on 800 rpm for 10 min; slides were fixed in fresh-made 4% paraformaldehyde fixation for 20 min at room temperature, then moved to 70% ethanol for 20 min. Slides were stained with Propidium Iodide (“PI”) (20 μg/mL) and RNase A (100 μg/mL) for 15 min. Slides were washed with PBS for three times and mounted with Vectashield anti-fade mounting media (Vector Laboratories, Inc., Burlingame, Calif.). Images were taken using a Nikon Eclipse TE-300 confocal microscope.

[6] = test system: breast cancer MDA-MB-231 cells; test: PCC induction and PI staining; assay type: cell-based, human; settings: 1 h
Method: as §1

[7] = test system: Burkitt's Lymphoma CA46 cells; test: PCC induction and PI staining; assay type: cell-based, human; settings: 1 h
Method: as §1

C=C(CCC(C)C)COC(=O)[C@H](O)C/C=C\C[C@@H]1O[C@@H]2/C=C/C/C=C/C(C)=C\[C@H]3O[C@@H](C/C=C/C=C/C(=O)O[C@H](C2)[C@@]1(C)CO)C[C@H](O)[C@H]3C [Lasonolide A]
lymphocytes going to PCC [1]: 35.5% | cell cycle phases in which PCC is induced [2]: induce PCC in each phases of cell cycle; also recorded: induce PCC in each phase of the cell cycle | cell migration [3]: inhibited migration | DNase I sensitivity, fluorescence shift ([4]; 100 nM): evidence of an effect | DNase I sensitivity, fluorescence shift ([4]; 200 nM): a greater change, affecting signal amplitude | reversibility of PCC induction [5]: reversible | time to PCC induction ([5]; nanomolar concentrations): ≤ 1 h | PCC induction compared with Okadaic Acid ([5]; tumor cells and normal human lymphocytes): more potent ability of PCC induction | PCC induction (in words) ([6]; 100 nM): induced premature chromosome condensation (PCC) | cells with PCC [6]: 13% | cells with premature chromosome condensation (PCC) ([7]; 100 nM Lasonolide A): 97.9% and 99.5% | PCC induction (in words) ([7]; 100 nM): induced premature chromosome condensation (PCC)
